According to PubChem BioAssay AID504867 (The Scripps Research Institute Molecular Screening Center, 2011):

Target: Sphingosine 1-phosphate receptor 5 (Homo sapiens) (UniProt Q9H228)
Experiment: S1P5 receptor agonists, human, late-stage follow-up, counter-screen for S1P4 agonist project, cell-based, fluorescence, set 2 (AID 504867)
Conditions: S1P5 agonist cell assay, fluorescence read-out

Sphingosine 1-phosphate receptor 5 (Homo sapiens), sequence (Q9H228 whole entry, looked up): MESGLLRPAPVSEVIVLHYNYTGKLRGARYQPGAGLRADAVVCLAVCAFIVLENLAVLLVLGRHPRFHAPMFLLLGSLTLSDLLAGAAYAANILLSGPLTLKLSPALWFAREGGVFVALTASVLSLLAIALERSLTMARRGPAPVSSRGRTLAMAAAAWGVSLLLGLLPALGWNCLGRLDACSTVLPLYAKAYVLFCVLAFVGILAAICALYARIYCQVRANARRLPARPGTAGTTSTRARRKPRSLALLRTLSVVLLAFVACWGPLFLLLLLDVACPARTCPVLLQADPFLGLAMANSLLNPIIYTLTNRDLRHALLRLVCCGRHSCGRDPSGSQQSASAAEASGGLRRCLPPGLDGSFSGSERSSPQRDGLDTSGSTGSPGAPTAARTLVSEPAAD

EC50: 2100 nM
Structure (SMILES): COCCN=C1S/C(=C\c2cc(C)n(-c3ccc(F)cc3F)c2C)C(=O)N1C
